Measurements from US8759480B2, “Contoxin analogues and methods for synthesis of intramolecular dicarba bridge-containing peptides” (Syngene Limited, priority 2006, dated 2014).

System: neuronal-type nicotinic receptors
Type: cell-based, bovine

## CN1CCCC1c1cccnc1 (stereo not shown) [NICOTINE, nicotine, reference compound]
  Adrenaline Release 1st: 4.31%
  Adrenaline Release 2nd: 4.52%
  Adrenaline Release 3rd: 4.52%
  Adrenaline Release 4th: 4.48%
  Adrenaline Release % control: 100.000%
  Adrenaline Release mean: 4.46%
  Noradrenaline Release 1st: 6.62%
  Noradrenaline Release 2nd: 6.89%
  Noradrenaline Release 3rd: 6.99%
  Noradrenaline Release 4th: 6.89%
  Noradrenaline Release % control: 100.000%
  Noradrenaline Release mean: 6.85%
  noradrenaline released, basal release (0.72%) subtracted: 6.13%
